In patent US10245261B2, “Substituted indol-5-ol derivatives and their therapeutic applications” (NantBioScience, Inc., priority 2013, dated 2019):

Legend:
Assay in all cases: KinaseProfiler kinase assay
Type in all cases: biochemical
ALK4(h) = ALK4(h) (Homo sapiens, UniProt P36896)
Outline: (§1)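 Each enzyme was assayed radiometrically: 40 min room-temperature reaction with [γ-33P]ATP and 10 mM Mg acetate, acid-stopped, filtered, scintillation-counted.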

Abl(m) = Abl(m) (Mus musculus, UniProt P00520)
Outline: as §1

Arg(h) = Arg(h) (Homo sapiens, UniProt P42684)
Outline: as §1

Arg(m) = Arg(m) (Mus musculus, UniProt Q4JIM5)
Outline: as §1

BTK(h) = BTK(h) (Homo sapiens, UniProt Q06187)
Outline: as §1

DCAMKL2(h) = DCAMKL2(h) (Homo sapiens, UniProt Q8N568)
Outline: as §1

EphA2(h) = EphA2(h) (Homo sapiens, UniProt P29317)
Outline: as §1

EphA3(h) = EphA3(h) (Homo sapiens, UniProt P29320)
Outline: as §1

FGFR1(V561M)(h) = FGFR1(V561M)(h) (Homo sapiens, UniProt P11362, V561M)
Outline: as §1

Fes(h) = Fes(h) (Homo sapiens, UniProt P07332)
Outline: as §1

GRK5(h) = GRK5(h) (Homo sapiens, UniProt P34947)
Outline: as §1

GRK7(h) = GRK7(h) (Homo sapiens, UniProt Q8WTQ7)
Outline: as §1

IRAK1(h) = IRAK1(h) (Homo sapiens, UniProt P51617)
Outline: as §1

LIMK1(h) = LIMK1(h) (Homo sapiens, UniProt P53667)
Outline: as §1

Lyn(m) = Lyn(m) (Mus musculus, UniProt P25911)
Outline: as §1

MAPK1(h) = MAPK1(h) (Homo sapiens, UniProt P27361)
Outline: as §1

MLCK(h) = MLCK(h) (Homo sapiens, UniProt Q9H1R3)
Outline: as §1

Met(Y1248D)(h) = Met(Y1248D)(h) (Homo sapiens, UniProt P08581, Y1230D)
Outline: as §1

NEK7(h) = NEK7(h) (Homo sapiens, UniProt Q8TDX7)
Outline: as §1

PAK2(h) = PAK2(h) (Homo sapiens, UniProt Q13177)
Outline: as §1

PDK1(h) = PDK1(h) (Homo sapiens, UniProt O15530)
Outline: as §1

PKCα(h) = PKCα(h) (Homo sapiens, UniProt P17252)
Outline: as §1

PKCε(h) = PKCε(h) (Homo sapiens, UniProt Q02156)
Outline: as §1

PRK2(h) = PRK2(h) (Homo sapiens, UniProt Q16513)
Outline: as §1

Pim-3(h) = Pim-3(h) (Homo sapiens, UniProt Q86V86)
Outline: as §1

Plk3(h) = Plk3(h) (Homo sapiens, UniProt Q9H4B4)
Outline: as §1

Rsk3(h) = Rsk3(h) (Homo sapiens, UniProt Q15349)
Outline: as §1

SAPK4(h) = SAPK4(h) (Homo sapiens, UniProt O15264)
Outline: as §1

SIK(h) = SIK(h) (Homo sapiens, UniProt P57059)
Outline: as §1

SRPK1(h) = SRPK1(h) (Homo sapiens, UniProt Q96SB4)
Outline: as §1

Tec(h) activated = Tec(h) activated (Homo sapiens, UniProt P42680)
Outline: as §1

p70S6K(h) = p70S6K(h) (Homo sapiens, UniProt P23443)
Outline: as §1

Sequence of Tec(h) activated (P42680 whole entry): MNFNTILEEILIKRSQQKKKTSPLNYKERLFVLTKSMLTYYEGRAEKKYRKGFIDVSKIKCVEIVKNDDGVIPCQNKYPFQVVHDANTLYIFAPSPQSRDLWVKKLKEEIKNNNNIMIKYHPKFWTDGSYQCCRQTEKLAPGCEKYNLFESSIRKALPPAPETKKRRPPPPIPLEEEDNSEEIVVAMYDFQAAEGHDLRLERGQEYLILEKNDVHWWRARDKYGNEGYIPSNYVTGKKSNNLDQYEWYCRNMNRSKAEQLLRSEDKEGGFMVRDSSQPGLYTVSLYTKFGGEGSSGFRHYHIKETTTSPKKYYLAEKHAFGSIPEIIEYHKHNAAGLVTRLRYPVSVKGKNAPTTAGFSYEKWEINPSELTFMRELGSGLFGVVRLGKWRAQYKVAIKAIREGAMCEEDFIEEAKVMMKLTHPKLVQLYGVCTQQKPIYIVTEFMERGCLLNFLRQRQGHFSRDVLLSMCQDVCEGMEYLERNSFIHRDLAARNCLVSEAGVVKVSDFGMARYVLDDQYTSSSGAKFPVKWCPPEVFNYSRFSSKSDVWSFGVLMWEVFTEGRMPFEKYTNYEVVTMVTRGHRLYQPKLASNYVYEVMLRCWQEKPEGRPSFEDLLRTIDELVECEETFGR
Sequence of PKCε(h) (Q02156 whole entry): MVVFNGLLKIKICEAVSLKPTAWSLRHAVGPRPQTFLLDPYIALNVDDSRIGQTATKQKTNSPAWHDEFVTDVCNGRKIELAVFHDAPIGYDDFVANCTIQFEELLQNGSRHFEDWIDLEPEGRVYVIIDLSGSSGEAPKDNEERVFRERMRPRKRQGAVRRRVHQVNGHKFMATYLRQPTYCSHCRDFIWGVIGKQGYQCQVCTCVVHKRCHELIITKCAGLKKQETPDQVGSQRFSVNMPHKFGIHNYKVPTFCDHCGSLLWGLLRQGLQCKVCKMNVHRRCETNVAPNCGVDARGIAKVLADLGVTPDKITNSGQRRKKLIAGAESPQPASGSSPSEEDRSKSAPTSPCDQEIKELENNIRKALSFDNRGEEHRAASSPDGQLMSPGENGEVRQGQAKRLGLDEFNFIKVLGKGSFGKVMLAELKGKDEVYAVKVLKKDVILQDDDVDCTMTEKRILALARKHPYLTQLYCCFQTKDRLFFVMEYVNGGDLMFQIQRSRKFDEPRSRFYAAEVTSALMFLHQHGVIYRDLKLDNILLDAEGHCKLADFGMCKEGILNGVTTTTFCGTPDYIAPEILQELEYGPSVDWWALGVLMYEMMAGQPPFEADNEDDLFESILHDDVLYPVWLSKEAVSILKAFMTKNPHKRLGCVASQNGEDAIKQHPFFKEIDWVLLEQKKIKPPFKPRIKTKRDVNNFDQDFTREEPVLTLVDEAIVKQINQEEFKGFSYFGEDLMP
Sequence of GRK7(h) (Q8WTQ7 whole entry): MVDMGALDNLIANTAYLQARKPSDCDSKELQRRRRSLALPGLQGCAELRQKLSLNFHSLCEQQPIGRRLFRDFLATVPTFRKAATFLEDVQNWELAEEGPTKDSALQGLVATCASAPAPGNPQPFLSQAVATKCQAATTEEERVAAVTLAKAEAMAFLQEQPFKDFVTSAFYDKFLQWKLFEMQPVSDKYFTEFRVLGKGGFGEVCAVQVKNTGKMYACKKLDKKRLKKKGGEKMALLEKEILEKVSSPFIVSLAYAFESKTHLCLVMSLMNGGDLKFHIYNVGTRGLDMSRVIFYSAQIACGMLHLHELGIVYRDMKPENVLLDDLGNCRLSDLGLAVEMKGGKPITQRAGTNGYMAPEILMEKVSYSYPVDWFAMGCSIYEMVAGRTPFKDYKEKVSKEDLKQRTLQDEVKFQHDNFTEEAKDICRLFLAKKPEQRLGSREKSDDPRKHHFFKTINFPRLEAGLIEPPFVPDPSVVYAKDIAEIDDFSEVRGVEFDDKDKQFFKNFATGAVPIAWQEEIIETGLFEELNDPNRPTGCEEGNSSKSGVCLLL
Sequence of EphA3(h) (P29320 21-983): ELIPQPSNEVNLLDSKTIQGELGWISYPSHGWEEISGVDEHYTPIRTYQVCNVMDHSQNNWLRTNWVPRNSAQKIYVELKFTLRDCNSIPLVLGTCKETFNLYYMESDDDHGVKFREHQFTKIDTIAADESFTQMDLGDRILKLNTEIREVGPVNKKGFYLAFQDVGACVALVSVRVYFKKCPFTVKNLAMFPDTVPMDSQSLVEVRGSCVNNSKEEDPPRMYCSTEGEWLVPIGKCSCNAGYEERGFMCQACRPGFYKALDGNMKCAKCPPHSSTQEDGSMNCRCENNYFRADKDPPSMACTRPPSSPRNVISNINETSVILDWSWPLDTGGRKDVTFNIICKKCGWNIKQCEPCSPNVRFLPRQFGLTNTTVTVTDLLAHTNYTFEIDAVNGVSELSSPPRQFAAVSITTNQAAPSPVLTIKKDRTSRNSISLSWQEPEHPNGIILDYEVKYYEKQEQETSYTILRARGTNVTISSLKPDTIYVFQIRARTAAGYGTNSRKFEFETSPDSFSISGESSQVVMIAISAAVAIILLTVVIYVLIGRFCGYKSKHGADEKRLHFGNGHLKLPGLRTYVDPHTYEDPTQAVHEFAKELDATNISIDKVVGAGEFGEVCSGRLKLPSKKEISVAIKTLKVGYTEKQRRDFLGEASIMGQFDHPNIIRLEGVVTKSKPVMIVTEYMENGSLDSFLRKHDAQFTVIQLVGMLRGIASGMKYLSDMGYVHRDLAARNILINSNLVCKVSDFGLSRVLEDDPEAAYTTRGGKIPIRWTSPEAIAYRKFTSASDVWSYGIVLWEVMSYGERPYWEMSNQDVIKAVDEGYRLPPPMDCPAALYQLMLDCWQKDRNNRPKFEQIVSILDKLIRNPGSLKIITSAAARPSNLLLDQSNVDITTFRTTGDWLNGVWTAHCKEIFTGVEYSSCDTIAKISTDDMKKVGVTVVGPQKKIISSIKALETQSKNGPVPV
Sequence of FGFR1(V561M)(h) (P11362 22-822 V561M): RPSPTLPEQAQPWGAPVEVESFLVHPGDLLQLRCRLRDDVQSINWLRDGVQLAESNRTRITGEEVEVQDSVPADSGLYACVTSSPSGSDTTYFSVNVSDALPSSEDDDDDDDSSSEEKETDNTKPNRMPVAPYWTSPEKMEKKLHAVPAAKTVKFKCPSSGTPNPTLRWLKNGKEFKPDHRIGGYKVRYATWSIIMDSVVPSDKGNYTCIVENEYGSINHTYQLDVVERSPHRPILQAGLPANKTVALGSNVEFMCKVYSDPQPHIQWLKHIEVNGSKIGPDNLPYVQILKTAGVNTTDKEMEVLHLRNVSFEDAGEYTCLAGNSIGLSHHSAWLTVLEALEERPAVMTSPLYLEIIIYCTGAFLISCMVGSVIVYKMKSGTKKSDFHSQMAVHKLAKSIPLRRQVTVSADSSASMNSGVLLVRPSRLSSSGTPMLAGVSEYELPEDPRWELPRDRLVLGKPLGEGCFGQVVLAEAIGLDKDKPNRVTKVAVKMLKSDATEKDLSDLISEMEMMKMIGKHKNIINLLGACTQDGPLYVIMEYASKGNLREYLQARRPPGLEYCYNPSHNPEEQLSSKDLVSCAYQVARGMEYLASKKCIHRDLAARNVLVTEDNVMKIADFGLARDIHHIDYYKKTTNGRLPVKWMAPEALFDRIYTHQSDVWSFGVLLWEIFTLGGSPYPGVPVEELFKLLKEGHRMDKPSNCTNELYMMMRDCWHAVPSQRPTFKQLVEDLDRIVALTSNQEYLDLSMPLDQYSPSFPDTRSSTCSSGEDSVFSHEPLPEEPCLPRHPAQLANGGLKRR
Sequence of Plk3(h) (Q9H4B4 whole entry): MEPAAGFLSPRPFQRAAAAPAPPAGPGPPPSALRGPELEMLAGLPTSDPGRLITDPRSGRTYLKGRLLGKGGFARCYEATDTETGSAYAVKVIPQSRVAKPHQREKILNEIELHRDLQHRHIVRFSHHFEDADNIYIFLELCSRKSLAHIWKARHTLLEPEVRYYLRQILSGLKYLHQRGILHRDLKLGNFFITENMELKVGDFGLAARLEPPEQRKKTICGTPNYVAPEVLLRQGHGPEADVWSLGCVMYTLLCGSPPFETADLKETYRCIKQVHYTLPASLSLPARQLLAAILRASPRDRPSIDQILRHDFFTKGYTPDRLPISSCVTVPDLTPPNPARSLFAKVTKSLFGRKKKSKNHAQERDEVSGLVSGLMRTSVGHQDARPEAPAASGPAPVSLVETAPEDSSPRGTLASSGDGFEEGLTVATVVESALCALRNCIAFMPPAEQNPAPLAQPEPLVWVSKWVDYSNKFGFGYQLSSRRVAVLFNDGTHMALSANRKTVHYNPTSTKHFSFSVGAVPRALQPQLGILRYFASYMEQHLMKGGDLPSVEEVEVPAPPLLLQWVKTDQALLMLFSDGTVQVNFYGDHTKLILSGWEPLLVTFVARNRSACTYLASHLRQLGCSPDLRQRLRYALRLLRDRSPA
Sequence of Rsk3(h) (Q15349 whole entry): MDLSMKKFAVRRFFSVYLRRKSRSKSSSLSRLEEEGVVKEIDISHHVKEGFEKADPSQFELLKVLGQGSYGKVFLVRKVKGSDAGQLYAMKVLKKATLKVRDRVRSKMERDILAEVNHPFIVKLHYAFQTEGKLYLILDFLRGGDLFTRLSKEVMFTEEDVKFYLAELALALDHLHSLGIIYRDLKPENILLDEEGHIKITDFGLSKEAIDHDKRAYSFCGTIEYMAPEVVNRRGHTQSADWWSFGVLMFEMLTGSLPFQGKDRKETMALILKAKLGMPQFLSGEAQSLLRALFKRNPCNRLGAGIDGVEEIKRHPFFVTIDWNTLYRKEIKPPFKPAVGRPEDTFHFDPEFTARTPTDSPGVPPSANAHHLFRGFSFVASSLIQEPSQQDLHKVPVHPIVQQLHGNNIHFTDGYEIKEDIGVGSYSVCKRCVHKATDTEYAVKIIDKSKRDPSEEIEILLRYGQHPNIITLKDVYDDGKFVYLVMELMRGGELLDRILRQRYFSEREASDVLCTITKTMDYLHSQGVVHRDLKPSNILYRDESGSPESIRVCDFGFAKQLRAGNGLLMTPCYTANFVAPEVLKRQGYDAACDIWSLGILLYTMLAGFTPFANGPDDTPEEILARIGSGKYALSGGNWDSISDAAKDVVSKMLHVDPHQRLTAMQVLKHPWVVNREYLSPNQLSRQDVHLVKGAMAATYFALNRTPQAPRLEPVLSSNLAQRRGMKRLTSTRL

Row | Structure (SMILES) | inhibition at 0.1 µM (ALK4(h)) | inhibition at 0.1 µM (Abl(m)) | inhibition at 0.1 µM (Arg(h)) | inhibition at 0.1 µM (Arg(m)) | inhibition at 0.1 µM (BTK(h)) | inhibition at 0.1 µM (DCAMKL2(h)) | inhibition at 0.1 µM (EphA2(h)) | inhibition at 0.1 µM (EphA3(h)) | inhibition at 0.1 µM (FGFR1(V561M)(h)) | inhibition at 0.1 µM (Fes(h)) | inhibition at 0.1 µM (GRK5(h)) | inhibition at 0.1 µM (GRK7(h)) | inhibition at 0.1 µM (IRAK1(h)) | inhibition at 0.1 µM (LIMK1(h)) | inhibition at 0.1 µM (Lyn(m)) | inhibition at 0.1 µM (MAPK1(h)) | inhibition at 0.1 µM (MLCK(h)) | inhibition at 0.1 µM (Met(Y1248D)(h)) | inhibition at 0.1 µM (NEK7(h)) | inhibition at 0.1 µM (PAK2(h)) | other results
1 | Cc1cc2c(F)c(Oc3nc(Nc4cc(C5CC5)[nH]n4)cc(N4CCN(C)CC4)n3)ccc2[nH]1 [Compound 10] | 77% | 101% | 104% | 99% | 50% | 16% | 96% | 47% | 101% | 48% | 18% | -4% | -2% | 83% | 98% | -4% | 0% | 80% | 8% | 16% | inhibition at 0.1 µM (PDK1(h)): 13%; inhibition at 0.1 µM (PKCα(h)): 4%; inhibition at 0.1 µM (PKCε(h)): -10%; inhibition at 0.1 µM (PRK2(h)): 51%; inhibition at 0.1 µM (Pim-3(h)): -1%; inhibition at 0.1 µM (Plk3(h)): 1%; inhibition at 0.1 µM (Rsk3(h)): 63%; inhibition at 0.1 µM (SAPK4(h)): -13%; inhibition at 0.1 µM (SIK(h)): 50%; inhibition at 0.1 µM (SRPK1(h)): -11%; inhibition at 0.1 µM (Tec(h) activated): 46%; inhibition at 0.1 µM (p70S6K(h)): -10%
2 | Cc1cc2c(F)c(Oc3nc(Nc4cc(C5CC5)[nH]n4)cc(N4CCNCC4)n3)ccc2[nH]1 [Compound 11, N-(5-cyclopropyl-1H-pyrazol-3-yl)-2-((4-fluoro-2-methyl-1H-indol-5-yl)oxy)-6-(piperazin-1-yl)pyrimidin-4-amine] | 81% | 104% | 102% | 102% | 71% | 15% | 98% | 56% | 101% | 54% | -2% | 0% | -9% | 90% | 101% | -10% | 0% | 76% | -5% | 0% | inhibition at 0.1 µM (PDK1(h)): 3%; inhibition at 0.1 µM (PKCα(h)): -3%; inhibition at 0.1 µM (PKCε(h)): 17%; inhibition at 0.1 µM (PRK2(h)): 51%; inhibition at 0.1 µM (Pim-3(h)): -4%; inhibition at 0.1 µM (Plk3(h)): 1%; inhibition at 0.1 µM (Rsk3(h)): 63%; inhibition at 0.1 µM (SAPK4(h)): 3%; inhibition at 0.1 µM (SIK(h)): 56%; inhibition at 0.1 µM (SRPK1(h)): -14%; inhibition at 0.1 µM (Tec(h) activated): 20%; inhibition at 0.1 µM (p70S6K(h)): 2%
